What was measured:
Format in all cases: cell-based
[1] = system: Ovarian cancer cells (OVCAR3); assay: Inhibitory activity against ovarian cancer cells (OVCAR3), CTG cell viability; settings: Homo sapiens, OVCAR-3, 168 h, 7 days with compound
Procedure: Ovarian cancer cells (OVCAR3) were cultured using an RPMI 1640 culture medium containing 10% FBS in a cell incubator (37 °C, 5% CO2). On day one, the cells were plated in a 384-well plate at a cell concentration of 800 cells/well and cultured overnight in an incubator. On day two, the cells were treated with compounds. The highest compound concentration was 10 µM and was diluted 3-fold to obtain 9 concentrations, and the final concentration of DMSO was 0.1%. After the cells were cultured in the incubator for another 7 days, the cell viability was tested using a CTG Cell Viability Detection Reagent (MCE); the testing method was consistent with the method provided by the kit. Data were processed using GraphPad Prism 8, and IC50 was calculated. [formula] X: the logarithm of the compound concentration; Y: inhibition%. Table 2. The IC50 (nM) of compounds of the present disclosure against OVCAR3

[2] = system: Triple-negative breast cancer cells (HCC1806); assay: Inhibitory activity against triple-negative breast cancer cells (HCC1806), CTG cell viability; settings: 7 days with compound
Procedure: Triple-negative breast cancer cells (HCC1806, Nanjing Cobioer Biosciences Co., Ltd.) were cultured using an RPMI 1640 culture medium containing 10% FBS in a cell incubator (37 °C, 5% CO2). On day one, the cells were plated in a 384-well plate at a cell concentration of 200 cells/well and cultured overnight in an incubator. On day two, the cells were treated with compounds. The highest compound concentration was 10 µM and was diluted 3-fold to obtain 9 concentrations, and the final concentration of DMSO was 0.2%. After the cells were cultured in the incubator for another 7 days, the cell viability was tested using a CTG Cell Viability Detection Reagent (MCE); the testing method was consistent with the method provided by the kit. Data were processed using XLfit, and IC50 was calculated. [formula] X: the logarithm of the compound concentration; Y: inhibition%. Table 4. The IC50 (nM) of compounds of the present disclosure against HCC1806

[3] = system: Human breast cancer cells (SUM-149PT); assay: Inhibitory activity against human breast cancer cells (SUM-149PT), CTG cell viability; settings: 5 days with compound
Procedure: (§1) Human breast cancer cells (SUM-149PT) were cultured using a DMEM culture medium containing 10% FBS in a cell incubator (37 °C, 5% CO2). On day one, the cells were plated in a 384-well plate at a cell concentration of 800 cells/well and cultured overnight in an incubator. On day two, the cells were treated with compounds. The highest compound concentration was 10 µM and was diluted 3-fold to obtain 9 concentrations, and the final concentration of DMSO was 0.2%. After the cells were cultured in the incubator for another 5 days, the cell viability was tested using a CTG Cell Viability Detection Reagent; the testing method was consistent with the method provided by the kit. Data were processed using XLFit, and IC50 was calculated. [formula] X: the logarithm of the compound concentration; Y: % inhibition. Table 14. The IC50 (nM) of a compound of the present disclosure against SUM-149PT

[4] = system: Human prostate cancer cells (22RV1); assay: Inhibitory activity against human prostate cancer cells (22RV1), CTG cell viability; settings: 5 days with compound
Procedure: as §1, with “prostate” for “breast”, “(22RV1)” for “(SUM-149PT)”, “an RPMI 1640” for “a DMEM”, “500” for “800”, “12.” for “14.”, “22RV1” for “SUM-149PT”

[5] = system: Human non-small cell lung cancer cells (A549); assay: Inhibitory activity against human non-small cell lung cancer cells (A549), CTG cell viability; settings: 5 days with compound
Procedure: as §1, with “non-small cell lung” for “breast”, “(A549)” for “(SUM-149PT)”, “an F12K” for “a DMEM”, “300” for “800”, “10.” for “14.”, “A549” for “SUM-149PT”

MCF-7/Palbo-R = assay: Inhibitory activity against CDK4/6 inhibitor-resistant human breast cancer cells (MCF-7 palbociclib-resistant cell line), cell viability; settings: 5 days with compound, CellTiter-Glo cell viability
Procedure: MCF-7/Palbo-R cell source: MCF7 cells (Nanjing Cobioer Biosciences Co., Ltd.) were treated with 1 µM palbociclib for a long time, and drug resistance was induced.
as §1, with “The palbociclib-resistant” for “Human”, “cell line MCF-7/Palbo-R was” for “cells (SUM-149PT) were”, “CellTiter-Glo luminescent cell viability assay kit;” for “CTG Cell Viability Detection Reagent;”, “XLfit,” for “XLFit,”, “calculated.” for “calculated. [formula] X: the logarithm of the compound concentration; Y: % inhibition. Table 14. The IC50 (nM) of a compound of the present disclosure against SUM-149PT”
The inhibition rates (IR) of the test compounds were calculated using the following formula: IR (%) = (1 - (RLU compound - RLU blank control) / (RLU vehicle control-RLU blank control)) × 100%. Table 16. The IC50 (nM) of a compound of the present disclosure against MCF-7/Palbo-R

[6] = system: Human breast cancer cells (MDA-MB-231); assay: Inhibitory activity against human breast cancer cells (MDA-MB-231), CTG cell viability; settings: 7 days with compound
Procedure: as §1, with “cells (MDA-MB-231)” for “cells (SUM-149PT)”, “of 600” for “of 800”, “another 7” for “another 5”, “Table 8.” for “Table 14.”, “against MDA-MB-231” for “against SUM-149PT”

| Structure (SMILES) | IC50 [1] | IC50 ([2]; Homo sapiens, 168 h) | further results |
| --- | --- | --- | --- |
| C[C@H]1COc2c(-c3nc(Nc4ccc(N5CCOCC5=O)cc4F)ncc3F)cc(F)c3nc(C(C)(C)O)n1c23 [Example 4, (S)-4-(3-Fluoro-4-((5-fluoro-4-(8-fluoro-2-(2-hydroxypropan-2-yl)-3-methyl-3,4-dihydro-5-oxa-1,2a-diazaacenaphthylen-6-yl)pyrimidin-2-yl)amino)phenyl)morpholin-3-one] | 0.348 µM | 0.279 µM |  |
| COCc1cc(C(=O)Nc2cc([C@H]3CC[C@@H](OC(=O)NC(C)C)C3)[nH]n2)n(C)n1 [PF-07104091, reference compound] |  |  | IC50 [3]: 1.34 µM; IC50 [4]: 2.7 µM; IC50 [5]: 1.13 µM; IC50 (MCF-7/Palbo-R): 0.836 µM; IC50 [2]: 0.936 µM; IC50 [6]: 1.25 µM |
| CC(=O)c1c(C)c2cnc(Nc3ccc(N4CCNCC4)cn3)nc2n(C2CCCC2)c1=O [Palbociclib] |  |  | IC50 (MCF-7/Palbo-R; Homo sapiens, MCF7, 120 h): > 2 µM |
| CNS(=O)(=O)c1ccc(Nc2ncc(Cl)c(-c3cc(F)c4nc(C(C)(C)O)n5c4c3OC[C@@H]5C)n2)c(F)c1 [Example 7, (S)-4-((5-Chloro-4-(8-fluoro-2-(2-hydroxypropan-2-yl)-3-methyl-3,4-dihydro-5-oxa-1,2a-diazaacenaphthylen-6-yl)pyrimidin-2-yl)amino)-3-fluoro-N-methylbenzenesulfonamide] | 0.669 µM | 0.342 µM |  |
| CNC(=O)c1ccc(Nc2ncc(F)c(-c3cc(F)c4nc(C(C)(C)O)n5c4c3OC[C@@H]5C)n2)cc1 [Example 3, (S)-4-((5-Fluoro-4-(8-fluoro-2-(2-hydroxypropan-2-yl)-3-methyl-3,4-dihydro-5-oxa-1,2a-diazaacenaphthylen-6-yl)pyrimidin-2-yl)amino)-N-methylbenzamide] | 0.197 µM | 0.172 µM |  |
| CC(C)n1c(C(C)(C)O)nc2c(F)cc(-c3nc(N[C@@H]4CCOC[C@H]4O)ncc3Cl)cc21 [PF-07220060] |  |  | IC50 [5]: 1.87 µM; IC50 (MCF-7/Palbo-R): 0.967 µM; IC50 [2]: 1.59 µM; IC50 [6]: 0.567 µM |
| C[C@H]1COc2c(-c3nc(Nc4ccc(N5CCOCC5=O)cc4F)ncc3C#N)cc(F)c3nc(C(C)(C)O)n1c23 [Example 13, (S)-4-(8-Fluoro-2-(2-hydroxypropan-2-yl)-3-methyl-3,4-dihydro-5-oxa-1,2a-diazaacenaphthylen-6-yl)-2-((2-fluoro-4-(3-oxomorpholino)phenyl)amino)pyrimidine-5-carbonitrile] | 0.901 µM |  |  |

The next lines start with results.

| IC50 [1] | IC50 ([2]; Homo sapiens, 168 h) | Structure (SMILES) | further results |
| --- | --- | --- | --- |
| 0.825 µM | 0.406 µM | COC(C)c1nc2c(F)cc(-c3nc(Nc4ccc(N5CCOCC5=O)cc4F)ncc3F)c3c2n1[C@@H](C)CO3 (stereo partly drawn) [Example 22, 4-(3-Fluoro-4-((5-fluoro-4-((3S)-8-fluoro-2-(1-methoxyethyl)-3-methyl-3,4-dihydro-5-oxa-1,2a-diazaacenaphthylen-6-yl)pyrimidin-2-yl)amino)phenyl)morpholin-3-one] |  |
| 0.573 µM | 0.303 µM | CC(C)c1nc2c(F)cc(-c3nc(Nc4ccc(N5CCOCC5=O)cc4F)ncc3F)c3c2n1[C@@H](C)CO3 [Example 27, (S)-4-(3-Fluoro-4-((5-fluoro-4-(8-fluoro-2-isopropyl-3-methyl-3,4-dihydro-5-oxa-1,2a-diazaacenaphthylen-6-yl)pyrimidin-2-yl)amino)phenyl)morpholin-3-one] |  |
|  | 0.386 µM | C[C@H]1COc2c(-c3nc(Nc4ccc(N5CCNCC5=O)cc4F)ncc3Cl)cc(F)c3nc(C(C)(C)O)n1c23 [Example 23, (S)-1-(4-((5-Chloro-4-(8-fluoro-2-(2-hydroxypropan-2-yl)-3-methyl-3,4-dihydro-5-oxa-1,2a-diazaacenaphthylen-6-yl)pyrimidin-2-yl)amino)3-fluorophenyl)piperazin-2-one] |  |
| 0.574 µM | 0.199 µM | C[C@H]1COc2c(-c3nc(Nc4ccc(N5CCOCC5=O)cc4F)ncc3Cl)cc(F)c3nc(C4(O)CCCC4)n1c23 [Example 44, (S)-4-(4-((5-Chloro-4-(8-fluoro-2-(1-hydroxycyclopentyl)-3-methyl-3,4-dihydro-5-oxa-1,2a-diazaacenaphthylen-6-yl)pyrimidin-2-yl)amino)-3-fluorophenyl)morpholin-3-one] |  |

From EP4752149A1, “OXYGEN-CONTAINING FUSED TRICYCLIC DERIVATIVE, AND PREPARATION METHOD THEREFOR AND USE THEREOF” (Tuojie Biotech (Shanghai) Co., Ltd., priority 2023, dated 2025)
